In PubChem BioAssay AID2060509 (Molecular Pharmacology Branch, DTP, NCI, 2025):

Tested on: 485176-168-R4-J1-PDC spheroids with HUVEC/MSC, viability
Assay: Anticancer human tumor 485176-168-R4-J1-PDC patient-derived pancreatic adenocarcinoma cell line growth inhibition [GQUAD]
Conditions: for IC50: curve of first compound; for viability, T/C: stronger effect = lower value
Text: DNA G-quadruplex Stabilizer Agents in Combinations in Complex Spheroids
A high-throughput screen of multi-cell type tumor spheroids was designed to identify active combinations of DNA G-quadruplex stabilizer agents and targeted small molecules. Complex spheroids include a stromal component modeled by human endothelial cells (HUVEC) and fibroblasts modeled by human mesenchymal stem cells (MSCs). The concentration ranges selected for each drug and investigational agent were based upon clinically achievable concentrations if the clinical Cmax of the agent was known.
Compounds. The drugs and investigational agents: pidnarulex (CX-5461; NSC782164), APTO-253 (NSC789042), BRACO-19 (NSC847499), peposertib (NSC802822), ceralasertib (NSC780249), elimusertib (NSC800525), camonsertib (NSC841442), AZD-1390 (NSC803789), olaparib (NSC753686), talazoparib (NSC767125), ART-558 (NSC835418), sotorasib (NSC818433), MRTX-1133 (NSC836407), SN-38 (NSC673596), topotecan (NSC609699), etoposide (NSC141540), doxorubicin (NSC123127), gemcitabine (NSC613327), 5-fluorouracil (NSC19893), paclitaxel (NSC125973), vemurafenib (NSC761431), panobinostat (NSC761190), R-306465 (JNJ-16241199; NSC773264), adavosertib (NSC754352), TP-3654 (NSC805149), carboplatin (NSC241240), KSQ-4279 (NSC840948), and staurosporine (NSC755774) were obtained from the National Cancer Institute (NCI) Developmental Therapeutics Program Chemical Repository (34). The FDA-approved anticancer drug set is available from the NCI Developmental Therapeutics Program. […] The stock solutions were prepared in dimethyl sulfoxide (DMSO, Sigma-Aldrich, St. Louis, MO, cat. D2650) at 800-fold the tested concentration and stored at -70 degrees C prior to their use. All drugs and investigational agents were tested over a range starting from a high concentration at or near the clinical Cmax and decreasing in half-log increments. If the clinical Cmax for an agent had not been determined, the highest concentration tested was 10 microM.
2.3 Cell Culture. All cells were maintained in an incubator at 37 degrees C and 5% CO2 with 95% humidity. The PDC lines were cultured according to standard operating procedures established by the NCI PDMR. All PDCs were thawed and cultured in Matrigel-coated flasks prepared with a working solution of 1X Ham's F-12 nutrient mix, without supplementation (Invitrogen, cat. 11765054), 100 U/mL penicillin-streptomycin (Invitrogen, cat. 15140122), and 2.5% Matrigel (Corning Inc., cat. 354248) for the first three passages. The 857933-349-R-J2-PDC line was cultured in 6C/Colon 1B media, which includes advanced DMEM/F-12 (Thermo Fisher Scientific, cat. 12634028), 10 mM HEPES (Thermo Fisher Scientific, cat. 15630080), 1X GlutaMAX supplement (Thermo Fisher Scientific, cat. 35050061), 0.1 mg/mL primocin (InvivoGen, cat. ant-pm-2), 10% defined fetal bovine serum, heat inactivated (HyClone Laboratories Inc., cat. SH30070.03HI), 50% L-WRN conditioned media (ATCC, cat. CRL-3276), 1.25 mM N-Acetyl-L-cysteine (Sigma-Aldrich, cat. A9165), 10 mM nicotinamide (Sigma-Aldrich, cat. N0636), 1X B-27 supplement (Thermo Fisher Scientific, cat. 17504044), 1X N-2 supplement (Thermo Fisher Scientific, cat. 17502048), 10 microM Y-27632 dihydrochloride (Tocris Bioscience, cat. 1254), and 50 ng/mL human EGF recombinant protein (Thermo Fisher Scientific, cat. PHG0311). The 485176-168-R4-J1-PDC line was cultured in Panc media, which includes all 6C/Colon 1B media components plus 100 ng/mL human FGF-10 (Thermo Fisher Scientific, cat. 100-26), 500 nM SB-431542 (Selleckchem, cat. S1067), and gastrin (Tocris, cat. 3006).
[…]

[1] = second compound 0.0316 µM, first compound 0.000999 µM
[2] = second compound 0.0316 µM, first compound 0.00316 µM
[3] = second compound 0.0316 µM, first compound 0.00999 µM
[4] = second compound 0.0316 µM, first compound 0.0316 µM
[5] = second compound 0.0316 µM, first compound 0.0999 µM
[6] = second compound 0.0316 µM, first compound 0.316 µM
[7] = second compound 0.1 µM, first compound 0.000999 µM
[8] = second compound 0.1 µM, first compound 0.00316 µM
[9] = second compound 0.1 µM, first compound 0.00999 µM
[10] = second compound 0.1 µM, first compound 0.0316 µM
[11] = second compound 0.1 µM, first compound 0.0999 µM
[12] = second compound 0.1 µM, first compound 0.316 µM
[13] = second compound 0.316 µM, first compound 0.000999 µM
[14] = second compound 0.316 µM, first compound 0.00316 µM
[15] = second compound 0.316 µM, first compound 0.00999 µM
[16] = second compound 0.316 µM, first compound 0.0316 µM
[17] = second compound 0.316 µM, first compound 0.0999 µM
[18] = second compound 0.316 µM, first compound 0.316 µM
[19] = second compound 1 µM, first compound 0.000999 µM
[20] = second compound 1 µM, first compound 0.00316 µM
[21] = second compound 1 µM, first compound 0.00999 µM
[22] = second compound 1 µM, first compound 0.0316 µM
[23] = second compound 1 µM, first compound 0.0999 µM
[24] = second compound 1 µM, first compound 0.316 µM
[25] = second compound 3.16 µM, first compound 0.000999 µM
[26] = second compound 3.16 µM, first compound 0.00316 µM
[27] = second compound 3.16 µM, first compound 0.00999 µM
[28] = second compound 3.16 µM, first compound 0.0316 µM
[29] = second compound 3.16 µM, first compound 0.0999 µM
[30] = second compound 3.16 µM, first compound 0.316 µM
[31] = second compound 10 µM, first compound 0.000999 µM
[32] = second compound 10 µM, first compound 0.00316 µM
[33] = second compound 10 µM, first compound 0.00999 µM
[34] = second compound 10 µM, first compound 0.0316 µM
[35] = second compound 10 µM, first compound 0.0999 µM
[36] = second compound 10 µM, first compound 0.316 µM
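Note: spheroids exposed to compounds for seven days before readout.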
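Throughout, for viability, T/C: percent viability relative to DMSO vehicle control wells as 100%.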

Question: With `Cc1[nH]c2ccccc2c1CCNCc1ccc(/C=C/C(=O)NO)cc1` + Cc1cnc(CNC(=O)c2c(=O)c3ccc(N4CCCN(C)CC4)nc3n3c2sc2ccccc23)cn1 as the compound, how does the IC50 (second compound 0.0316 µM) read?
Answer: The IC50 was 94 nM.

Question: What about the IC50 (second compound 0.1 µM) of the same compound?
Answer: Its IC50 is 39.2 nM.

Question: What about the IC50 (second compound 0.316 µM) of the same compound?
Answer: The IC50 was 11 nM.

Question: And the IC50 (second compound 1 µM)?
Answer: Its IC50 is less than 0.999 nM.

Question: What about the IC50 (second compound 3.16 µM) of the same compound?
Answer: Its IC50 is less than 0.999 nM.

Question: And the IC50 (second compound 10 µM)?
Answer: The IC50 was less than 0.999 nM.

Question: What about the viability, T/C [1] of the same compound?
Answer: Its viability, T/C is 99.4%.

Question: What about the viability, T/C [2] of the same compound?
Answer: The viability, T/C was 74.4%.

Question: And the viability, T/C [3]?
Answer: Its viability, T/C is 85.6%.

Question: What about the viability, T/C [4] of the same compound?
Answer: Its viability, T/C is 60.5%.

Question: And the viability, T/C [5]?
Answer: Its viability, T/C is 57.5%.

Question: And the viability, T/C [6]?
Answer: Its viability, T/C is 12.1%.

Question: And the viability, T/C [7]?
Answer: The viability, T/C was 74.5%.

Question: What about the viability, T/C [8] of the same compound?
Answer: The viability, T/C was 89.6%.

Question: What about the viability, T/C [9] of the same compound?
Answer: Its viability, T/C is 49.4%.

Question: And the viability, T/C [10]?
Answer: Its viability, T/C is 51.7%.

Question: And the viability, T/C [11]?
Answer: Its viability, T/C is 44.3%.

Question: What about the viability, T/C [12] of the same compound?
Answer: The viability, T/C was 9.46%.

Question: What about the viability, T/C [13] of the same compound?
Answer: Its viability, T/C is 63.3%.

Question: And the viability, T/C [14]?
Answer: Its viability, T/C is 59.6%.

Question: What about the viability, T/C [15] of the same compound?
Answer: The viability, T/C was 53.5%.

Question: And the viability, T/C [16]?
Answer: Its viability, T/C is 35.3%.

Question: And the viability, T/C [17]?
Answer: Its viability, T/C is 27.2%.

Question: And the viability, T/C [18]?
Answer: Its viability, T/C is 6.34%.

Question: What about the viability, T/C [19] of the same compound?
Answer: Its viability, T/C is 44.6%.

Question: And the viability, T/C [20]?
Answer: The viability, T/C was 52.6%.

Question: What about the viability, T/C [21] of the same compound?
Answer: The viability, T/C was 45.4%.

Question: What about the viability, T/C [22] of the same compound?
Answer: The viability, T/C was 30.7%.

Question: What about the viability, T/C [23] of the same compound?
Answer: The viability, T/C was 23.8%.

Question: What about the viability, T/C [24] of the same compound?
Answer: The viability, T/C was 0.94%.

Question: What about the viability, T/C [25] of the same compound?
Answer: The viability, T/C was 47.2%.

Question: And the viability, T/C [26]?
Answer: The viability, T/C was 39.2%.

Question: What about the viability, T/C [27] of the same compound?
Answer: Its viability, T/C is 45%.

Question: What about the viability, T/C [28] of the same compound?
Answer: Its viability, T/C is 33.1%.

Question: What about the viability, T/C [29] of the same compound?
Answer: The viability, T/C was 14%.

Question: And the viability, T/C [30]?
Answer: Its viability, T/C is 0.27%.

Question: What about the viability, T/C [31] of the same compound?
Answer: The viability, T/C was 36.2%.

Question: And the viability, T/C [32]?
Answer: The viability, T/C was 37.5%.

Question: And the viability, T/C [33]?
Answer: The viability, T/C was 32.5%.

Question: What about the viability, T/C [34] of the same compound?
Answer: Its viability, T/C is 26.5%.

Question: What about the viability, T/C [35] of the same compound?
Answer: Its viability, T/C is 11.1%.

Question: What about the viability, T/C [36] of the same compound?
Answer: The viability, T/C was 0.69%.

Question: Which results are given for `Cn1ncnc1[C@H]1c2n[nH]c(=O)c3cc(F)cc(c23)N[C@@H]1c1ccc(F)cc1` + Cc1cnc(CNC(=O)c2c(=O)c3ccc(N4CCCN(C)CC4)nc3n3c2sc2ccccc23)cn1?
Answer: IC50 (second compound 0.0316 µM): > 316 nM; IC50 (second compound 0.1 µM): > 316 nM; IC50 (second compound 0.316 µM): > 316 nM; IC50 (second compound 1 µM): > 316 nM; IC50 (second compound 3.16 µM): 7.33 nM; IC50 (second compound 10 µM): < 0.999 nM; viability, T/C [1]: 90.2%; viability, T/C [2]: 79%; viability, T/C [3]: 91.5%; viability, T/C [4]: 90.2%; viability, T/C [5]: 91.4%; viability, T/C [6]: 80.8%; viability, T/C [7]: 74.4%; viability, T/C [8]: 91.7%; viability, T/C [9]: 75.8%; viability, T/C [10]: 77.3%; viability, T/C [11]: 78.9%; viability, T/C [12]: 69.9%; viability, T/C [13]: 63.6%; viability, T/C [14]: 70.5%; viability, T/C [15]: 64.8%; viability, T/C [16]: 62.7%; viability, T/C [17]: 56.2%; viability, T/C [18]: 68.7%; viability, T/C [19]: 49.3%; viability, T/C [20]: 61.2%; viability, T/C [21]: 74%; viability, T/C [22]: 51.8%; viability, T/C [23]: 52.8%; viability, T/C [24]: 48.5%; viability, T/C [25]: 45.4%; viability, T/C [26]: 63.9%; viability, T/C [27]: 48.3%; viability, T/C [28]: 45.3%; viability, T/C [29]: 45.4%; viability, T/C [30]: 40%; viability, T/C [31]: 42.8%; viability, T/C [32]: 48.4%; viability, T/C [33]: 39.2%; viability, T/C [34]: 34.8%; viability, T/C [35]: 38.1%; viability, T/C [36]: 33.5%
